# Data from patent US10023570B2 (Array BioPharma, Inc., priority 2015, dated 2018).
# Where a name gives a salt, the structure may show the parent alone. Read-outs that look alike come from different tables or passages of the source.
# How the values were obtained:
# [1] = target: human KDR protein in HEK-293 cells (Homo sapiens (Human), UniProt P35968); experiment: KDR Cell Assay (phospho-KDR in HEK-293 cells expressing inducible KDR); assay type: cell-based; conditions: pKDR Cell HEK 10% FBS IC50, HEK-293 cells expressing inducible KDR, VEGF stimulated, 10% FBS
# Chain of human KDR protein in HEK-293 cells (P35968 20-1356): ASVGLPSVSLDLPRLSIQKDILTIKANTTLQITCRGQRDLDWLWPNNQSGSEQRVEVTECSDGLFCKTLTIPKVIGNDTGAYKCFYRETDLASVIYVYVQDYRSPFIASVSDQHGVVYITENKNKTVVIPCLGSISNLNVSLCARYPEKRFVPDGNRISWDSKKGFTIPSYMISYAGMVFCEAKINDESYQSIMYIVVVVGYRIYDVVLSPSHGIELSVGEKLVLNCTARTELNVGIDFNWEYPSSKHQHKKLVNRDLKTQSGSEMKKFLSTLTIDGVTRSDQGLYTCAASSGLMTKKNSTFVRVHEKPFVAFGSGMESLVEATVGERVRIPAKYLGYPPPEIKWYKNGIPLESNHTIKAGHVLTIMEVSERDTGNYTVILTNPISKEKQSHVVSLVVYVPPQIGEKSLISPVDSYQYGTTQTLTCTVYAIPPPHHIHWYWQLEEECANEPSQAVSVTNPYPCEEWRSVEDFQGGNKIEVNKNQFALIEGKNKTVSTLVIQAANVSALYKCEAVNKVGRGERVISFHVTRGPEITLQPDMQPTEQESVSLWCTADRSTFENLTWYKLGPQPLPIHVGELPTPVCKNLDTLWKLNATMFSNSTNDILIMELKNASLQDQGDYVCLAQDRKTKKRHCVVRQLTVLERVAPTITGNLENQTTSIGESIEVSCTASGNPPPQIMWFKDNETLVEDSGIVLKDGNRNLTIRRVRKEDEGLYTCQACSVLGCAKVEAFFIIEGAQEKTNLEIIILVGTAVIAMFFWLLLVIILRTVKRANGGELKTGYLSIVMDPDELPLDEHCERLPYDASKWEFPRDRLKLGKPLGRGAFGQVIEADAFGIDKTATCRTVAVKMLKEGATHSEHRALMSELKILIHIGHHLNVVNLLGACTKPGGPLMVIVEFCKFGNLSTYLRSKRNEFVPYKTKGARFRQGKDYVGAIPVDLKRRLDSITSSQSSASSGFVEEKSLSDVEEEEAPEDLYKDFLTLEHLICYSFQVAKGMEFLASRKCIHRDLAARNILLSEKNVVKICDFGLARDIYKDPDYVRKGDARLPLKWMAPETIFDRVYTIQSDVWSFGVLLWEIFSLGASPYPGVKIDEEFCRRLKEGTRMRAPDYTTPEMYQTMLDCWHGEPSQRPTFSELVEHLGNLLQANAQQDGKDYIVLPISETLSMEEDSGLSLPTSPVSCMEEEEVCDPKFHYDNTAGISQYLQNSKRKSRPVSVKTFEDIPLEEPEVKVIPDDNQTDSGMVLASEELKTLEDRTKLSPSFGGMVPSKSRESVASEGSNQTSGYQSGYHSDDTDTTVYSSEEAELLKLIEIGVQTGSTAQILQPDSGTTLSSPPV
# Outline: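 HEK-293 cells with inducible human KDR were treated with compound for 1 h in DMEM (0.25% DMSO final), then lysed. Phospho-KDR was quantified by Meso Scale immunoassay, expressed as percent of control, and IC50 taken where a 4-parameter logistic fit crossed 50 POC.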
# [2] = target: Kif5b-RET fusion protein in HEK-293 cells (Homo sapiens, UniProt P07949); experiment: cell-based; conditions: read-out: KIF5B-RET pTYR1062 Cell IC50
# Chain of Kif5b-RET fusion protein in HEK-293 cells (P07949 29-1114 limits assumed): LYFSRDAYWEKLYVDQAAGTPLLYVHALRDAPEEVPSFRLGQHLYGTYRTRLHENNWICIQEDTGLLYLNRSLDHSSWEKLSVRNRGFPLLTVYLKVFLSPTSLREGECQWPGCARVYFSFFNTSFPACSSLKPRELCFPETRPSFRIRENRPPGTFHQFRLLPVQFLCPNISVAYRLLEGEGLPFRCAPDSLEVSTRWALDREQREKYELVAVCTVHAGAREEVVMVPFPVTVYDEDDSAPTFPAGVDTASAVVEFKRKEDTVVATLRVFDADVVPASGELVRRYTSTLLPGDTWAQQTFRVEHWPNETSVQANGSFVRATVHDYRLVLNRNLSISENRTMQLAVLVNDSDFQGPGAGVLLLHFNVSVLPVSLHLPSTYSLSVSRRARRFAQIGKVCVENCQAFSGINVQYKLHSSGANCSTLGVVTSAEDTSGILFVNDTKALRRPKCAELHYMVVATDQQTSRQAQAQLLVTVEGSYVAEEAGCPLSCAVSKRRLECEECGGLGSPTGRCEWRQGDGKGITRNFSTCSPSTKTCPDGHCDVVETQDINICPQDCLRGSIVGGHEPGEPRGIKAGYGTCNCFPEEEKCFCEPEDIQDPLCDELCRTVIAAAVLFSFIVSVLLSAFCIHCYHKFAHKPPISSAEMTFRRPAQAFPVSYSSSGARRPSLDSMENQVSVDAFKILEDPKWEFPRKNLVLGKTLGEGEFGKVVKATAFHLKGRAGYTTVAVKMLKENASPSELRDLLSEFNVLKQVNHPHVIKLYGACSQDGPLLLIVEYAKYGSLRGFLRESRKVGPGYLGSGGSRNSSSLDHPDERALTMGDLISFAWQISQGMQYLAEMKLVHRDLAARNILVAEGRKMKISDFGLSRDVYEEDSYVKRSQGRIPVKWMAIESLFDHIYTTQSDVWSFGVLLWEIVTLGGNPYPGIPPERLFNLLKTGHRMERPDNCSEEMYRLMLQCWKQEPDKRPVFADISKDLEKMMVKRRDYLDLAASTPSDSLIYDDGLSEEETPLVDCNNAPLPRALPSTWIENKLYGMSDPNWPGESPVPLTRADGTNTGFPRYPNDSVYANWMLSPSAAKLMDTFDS
# [3] = target: N-terminal GST tagged recombinant human RET cytoplasmic domain (aa 658-end), wild type RET kinase (Homo sapiens (Human), UniProt P07949); experiment: RET Enzyme Assay (HTRF KinEASE-TK), wild type RET; assay type: biochemical
# Chain of N-terminal GST tagged recombinant human RET cytoplasmic domain (aa 658-end), wild type RET kinase (P07949 658-1114): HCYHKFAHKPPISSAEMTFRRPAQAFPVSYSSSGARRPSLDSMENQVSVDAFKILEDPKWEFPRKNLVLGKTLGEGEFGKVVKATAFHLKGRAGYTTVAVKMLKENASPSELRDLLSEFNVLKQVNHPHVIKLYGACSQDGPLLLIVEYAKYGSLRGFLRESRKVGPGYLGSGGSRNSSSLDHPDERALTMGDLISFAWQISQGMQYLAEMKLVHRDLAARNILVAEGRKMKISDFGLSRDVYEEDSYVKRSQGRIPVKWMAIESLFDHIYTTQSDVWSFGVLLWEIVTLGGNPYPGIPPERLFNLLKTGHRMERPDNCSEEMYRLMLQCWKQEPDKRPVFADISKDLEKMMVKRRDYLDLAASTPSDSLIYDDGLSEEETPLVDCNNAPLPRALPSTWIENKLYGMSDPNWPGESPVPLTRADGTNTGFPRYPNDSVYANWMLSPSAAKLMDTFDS
# [4] = HEK-293 cells expressing Kif5b-RET, phospho-RET(Tyr1062)
IC50 [1] [nM],"IC50 [2, 4] [nM]","IC50 ([3]; wild type RET, 1 mM ATP) [nM]",Compound,IC50 [3] [nM],IC50 [2] [nM]
71.3,5.2,8.3,"Cn1cc(-c2cc(-c3ccc(N4CCN(S(=O)(=O)NC(C)(C)C)CC4)nc3)c3c(C#N)cnn3c2)cn1 [Example 137, N-(tert-butyl)-4-(5-(3-cyano-6-(1-methyl-1H-pyrazol-4-yl)pyrazolo[1,5-a]pyridin-4-yl)pyridin-2-yl)piperazine-1-sulfonamide]",–,–
203,13.2,7.4,"Cn1cc(-c2cc(-c3ccc(N4CCN(C=O)CC4)nc3)c3c(C#N)cnn3c2)cn1 [Example 141, 4-(6-(4-formylpiperazin-1-yl)pyridin-3-yl)-6-(1-methyl-1H-pyrazol-4-yl)pyrazolo[1,5-a]pyridine-3-carbonitrile]",–,–
1060,46.7,19.8,"Cn1cc(-c2cc(-c3ccc(N4CCN(CC(O)C(C)(C)C)CC4)nc3)c3c(C#N)cnn3c2)cn1 (stereo not drawn) [Example 148, 4-(6-(4-(2-hydroxy-3,3-dimethylbutyl)piperazin-1-yl)pyridin-3-yl)-6-(1-methyl-1H-pyrazol-4-yl)pyrazolo[1,5-a]pyridine-3-carbonitrile]",–,–
1430,70.4,44,"COC[C@H](O)CN1CCN(c2ccc(-c3cc(-c4cnn(C)c4)cn4ncc(C#N)c34)cn2)CC1 [Example 151, (R)-4-(6-(4-(2-hydroxy-3-methoxypropyl)piperazin-1-yl)pyridin-3-yl)-6-(1-methyl-1H-pyrazol-4-yl)pyrazolo[1,5-a]pyridine-3-carbonitrile]",–,–
192,11,13.6,"CC(C)C(O)CN1CCN(c2ccc(-c3cc(-c4cnn(C)c4)cn4ncc(C#N)c34)cn2)CC1 (stereo not drawn) [Example 160, 4-(6-(4-(2-hydroxy-3-methylbutyl)piperazin-1-yl)pyridin-3-yl)-6-(1-methyl-1H-pyrazol-4-yl)pyrazolo[1,5-a]pyridine-3-carbonitrile]",–,–
928,15.3,7.6,"Cn1cc(-c2cc(-c3ccc(N4CCC(NC(=O)OC(C)(C)C)CC4)nc3)c3c(C#N)cnn3c2)cn1 [Example 176, tert-butyl (1-(5-(3-cyano-6-(1-methyl-1H-pyrazol-4-yl)pyrazolo[1,5-a]pyridin-4-yl)pyridin-2-yl)piperidin-4-yl)carbamate]",–,–
547,30.8,18,"Cn1cc(-c2cc(-c3ccc(N4CCC(NC(=O)C(C)(C)O)CC4)nc3)c3c(C#N)cnn3c2)cn1 [Example 179, N-(1-(5-(3-cyano-6-(1-methyl-1H-pyrazol-4-yl)pyrazolo[1,5-a]pyridin-4-yl)pyridin-2-yl)piperidin-4-yl)-2-hydroxy-2-methylpropanamide]",–,–
1200,109,10.5,"C[C@@H](O)C(=O)NC1CCN(c2ccc(-c3cc(-c4cnn(C)c4)cn4ncc(C#N)c34)cn2)CC1 [Example 181, (R)-N-(1-(5-(3-cyano-6-(1-methyl-1H-pyrazol-4-yl)pyrazolo[1,5-a]pyridin-4-yl)pyridin-2-yl)piperidin-4-yl)-2-hydroxypropanamide]",–,–
444,15.8,11.9,"COCC(=O)NC1CCN(c2ccc(-c3cc(-c4cnn(C)c4)cn4ncc(C#N)c34)cn2)CC1 [Example 183, N-(1-(5-(3-cyano-6-(1-methyl-1H-pyrazol-4-yl)pyrazolo[1,5-a]pyridin-4-yl)pyridin-2-yl)piperidin-4-yl)-2-methoxyacetamide]",–,–
628,14.3,11.5,"CC(C)C(=O)NC1CCN(c2ccc(-c3cc(-c4cnn(C)c4)cn4ncc(C#N)c34)cn2)CC1 [Example 185, N-(1-(5-(3-cyano-6-(1-methyl-1H-pyrazol-4-yl)pyrazolo[1,5-a]pyridin-4-yl)pyridin-2-yl)piperidin-4-yl)isobutyramide]",–,–
451,22.5,14.3,"CN(C)C(=O)NC1CCN(c2ccc(-c3cc(-c4cnn(C)c4)cn4ncc(C#N)c34)cn2)CC1 [Example 186, 3-(1-(5-(3-cyano-6-(1-methyl-1H-pyrazol-4-yl)pyrazolo[1,5-a]pyridin-4-yl)pyridin-2-yl)piperidin-4-yl)-1,1-dimethylurea]",–,–
871,20.4,15.9,"CC(C)NC(=O)NC1CCN(c2ccc(-c3cc(-c4cnn(C)c4)cn4ncc(C#N)c34)cn2)CC1 [Example 187, 1-(1-(5-(3-cyano-6-(1-methyl-1H-pyrazol-4-yl)pyrazolo[1,5-a]pyridin-4-yl)pyridin-2-yl)piperidin-4-yl)-3-isopropylurea]",–,–
614,9.7,16.8,"CC(C)OC(=O)NC1CCN(c2ccc(-c3cc(-c4cnn(C)c4)cn4ncc(C#N)c34)cn2)CC1 [Example 188, Isopropyl (1-(5-(3-cyano-6-(1-methyl-1H-pyrazol-4-yl)pyrazolo[1,5-a]pyridin-4-yl)pyridin-2-yl)piperidin-4-yl)carbamate]",–,–
630,45.5,10.9,"Cn1cc(-c2cc(-c3ccc(N4CCC(O)CC4)nc3)c3c(C#N)cnn3c2)cn1 [Example 196, 4-(6-(4-hydroxypiperidin-1-yl)pyridin-3-yl)-6-(1-methyl-1H-pyrazol-4-yl)pyrazolo[1,5-a]pyridine-3-carbonitrile]",–,–

Compound,IC50 [1] [nM],"IC50 [2, 4] [nM]","IC50 ([3]; wild type RET, 1 mM ATP) [nM]",IC50 [3] [nM],IC50 [2] [nM]
"CN(C)C(=O)CN1CCN(c2ccc(-c3cc(-c4cnn(C)c4)cn4ncc(C#N)c34)cn2)CC1 [Example 143, 2-(4-(5-(3-cyano-6-(1-methyl-1H-pyrazol-4-yl)pyrazolo[1,5-a]pyridin-4-yl)pyridin-2-yl)piperazin-1-yl)-N,N-dimethylacetamide 2,2,2-trifluoroacetate]",1800,69.8,–,34.1,–
"CC(C)NC(=O)CN1CCN(c2ccc(-c3cc(-c4cnn(C)c4)cn4ncc(C#N)c34)cn2)CC1 [Example 144, 2-(4-(5-(3-cyano-6-(1-methyl-1H-pyrazol-4-yl)pyrazolo[1,5-a]pyridin-4-yl)pyridin-2-yl)piperazin-1-yl)-N-isopropylacetamide 2,2,2-trifluoroacetate]",1680,58.9,–,25.2,–
"CN(C)C(=O)CCN1CCN(c2ccc(-c3cc(-c4cnn(C)c4)cn4ncc(C#N)c34)cn2)CC1 [Example 146, 3-(4-(5-(3-cyano-6-(1-methyl-1H-pyrazol-4-yl)pyrazolo[1,5-a]pyridin-4-yl)pyridin-2-yl)piperazin-1-yl)-N,N-dimethylpropanamide 2,2,2-trifluoroacetate]",736,–,12.3,–,29
"Cn1cc(-c2cc(-c3ccc(N4CCC(N)CC4)nc3)c3c(C#N)cnn3c2)cn1 [Example 177, 4-(6-(4-aminopiperidin-1-yl)pyridin-3-yl)-6-(1-methyl-1H-pyrazol-4-yl)pyrazolo[1,5-a]pyridine-3-carbonitrile dihydrochloride]",1180,–,47,–,69.9
"CC(C)COC1CCN(c2ccc(-c3cc(-c4cnn(C)c4)cn4ncc(C#N)c34)cn2)CC1 [Example 197, 4-(6-(4-isobutoxypiperidin-1-yl)pyridin-3-yl)-6-(1-methyl-1H-pyrazol-4-yl)pyrazolo[1,5-a]pyridine-3-carbonitrile]",1300,39.6,14,–,–
